Results as given in patent US6627734B1 (dated 2003).

Test system: expressed full length clones containing these insertions (KOR-3a, KOR-3b, KOR-3c)
Assay: Preliminary binding of [3H]naloxone benzoylhydrazone to expressed full length KOR-3 splice variant clones
Design: species or system mouse
Details: preliminary studies; expressed full length clones with mini-exon insertions (KOR-3a, KOR-3b, KOR-3c); radioligand

In the case of `C=CCN1CC[C@]23c4c5ccc(O)c4O[C@H]2/C(=N/NC(=O)c2ccccc2)CC[C@@]3(O)[C@H]1C5` [[^3H]naloxone benzolhydrazone], the “binding of the kappa3 ligand by the expressed full length clones” value is reported as “quite well”.
